Results published in ChEMBL document CHEMBL3822358 (J Med Chem, 2016).
Values after ≈ are worked out from the molar mass of the structure shown. Active and inactive are the calls of the source. No cut-off for these calls is given here.

system: not listed separately; assay: cells; details: Homo sapiens, KARPAS-299, 72 h
Description: Antiproliferative activity against human ALK-positive KARPAS299 cells assessed as reduction in cell viability measured after 72 hrs by CellTiter 96 aqueous one solution cell proliferation assay

| Compound | GI50 [nM] | IC50 [nM] |
| --- | --- | --- |
| COc1cc(N2CCC(N3CCN(C)CC3)CC2)ccc1Nc1ncc(Cl)c(Nc2ccccc2P(C)(C)=O)n1 [BRIGATINIB] | 10 | 29 |

system: not listed separately; assay: AUC (0 to 24 hrs) in mouse at 10 mg/kg, po by LC-MS/MS analysis; type: ADME, organism-based; design: time < 24 hr, dose 10 mg/kg, route oral; details: in vivo

| Compound | AUC(0-t) at 24 h [ng·h/mL] |
| --- | --- |
| COc1cc(N2CCC(N3CCN(C)CC3)CC2)ccc1Nc1ncc(Cl)c(Nc2ccccc2P(C)(C)=O)n1 [BRIGATINIB] | 5770 |

system: Mus musculus; assay: Toxicity in SCID/beige mouse xenografted with human KARPAS299 cells expressing […] fusion protein at 50 mg/kg, po administered once daily for 13 days; type: organism-based, KARPAS-299; details: in vivo, 312 h

| Compound | Activity |
| --- | --- |
| COc1cc(N2CCC(N3CCN(C)CC3)CC2)ccc1Nc1ncc(Cl)c(Nc2ccccc2P(C)(C)=O)n1 [BRIGATINIB] | Non-toxic |

system: not listed separately; assay: Protein binding in human plasma; type: ADME, cell-free; details: read-out: PPB (converted)

| Compound | fraction unbound |
| --- | --- |
| COc1cc(N2CCC(N3CCN(C)CC3)CC2)ccc1Nc1ncc(Cl)c(Nc2ccccc2P(C)(C)=O)n1 [BRIGATINIB] | 0.34 |

system: not listed separately; assay: Oral bioavailability in CD rat at 10 mg/kg by LC-MS/MS analysis; type: ADME, organism-based; details: in vivo

| Compound | bioavailability [%] |
| --- | --- |
| COc1cc(N2CCC(N3CCN(C)CC3)CC2)ccc1Nc1ncc(Cl)c(Nc2ccccc2P(C)(C)=O)n1 [BRIGATINIB] | 52 |

system: not listed separately; assay: Cmax in CD rat at 10 mg/kg, po by LC-MS/MS analysis; type: ADME, organism-based; design: dose 10 mg/kg, route oral; details: in vivo

| Compound | Cmax [ng/mL] |
| --- | --- |
| COc1cc(N2CCC(N3CCN(C)CC3)CC2)ccc1Nc1ncc(Cl)c(Nc2ccccc2P(C)(C)=O)n1 [BRIGATINIB] | 305 |

system: Rattus norvegicus; assay: Volume of distribution at steady state in CD rat at 3 mg/kg, iv by LC-MS/MS analysis; type: ADME, organism-based; details: in vivo

| Compound | Vdss [L/kg] |
| --- | --- |
| COc1cc(N2CCC(N3CCN(C)CC3)CC2)ccc1Nc1ncc(Cl)c(Nc2ccccc2P(C)(C)=O)n1 [BRIGATINIB] | 7.8 |

system: Mus musculus; assay: Toxicity in SCID/beige mouse xenografted with human NCI-H3122 cells assessed as body weight loss at 10 to 50 mg/kg, po administered once daily for 19 days relative to vehicle-treated control; type: organism-based; details: in vivo, 456 h

| Compound | Activity |
| --- | --- |
| COc1cc(N2CCC(N3CCN(C)CC3)CC2)ccc1Nc1ncc(Cl)c(Nc2ccccc2P(C)(C)=O)n1 [BRIGATINIB] | Non-toxic |

biological target: Insulin receptor (Homo sapiens, UniProt P06213); assay: not given; details: not given
Sequence (P06213 28-758 limits assumed): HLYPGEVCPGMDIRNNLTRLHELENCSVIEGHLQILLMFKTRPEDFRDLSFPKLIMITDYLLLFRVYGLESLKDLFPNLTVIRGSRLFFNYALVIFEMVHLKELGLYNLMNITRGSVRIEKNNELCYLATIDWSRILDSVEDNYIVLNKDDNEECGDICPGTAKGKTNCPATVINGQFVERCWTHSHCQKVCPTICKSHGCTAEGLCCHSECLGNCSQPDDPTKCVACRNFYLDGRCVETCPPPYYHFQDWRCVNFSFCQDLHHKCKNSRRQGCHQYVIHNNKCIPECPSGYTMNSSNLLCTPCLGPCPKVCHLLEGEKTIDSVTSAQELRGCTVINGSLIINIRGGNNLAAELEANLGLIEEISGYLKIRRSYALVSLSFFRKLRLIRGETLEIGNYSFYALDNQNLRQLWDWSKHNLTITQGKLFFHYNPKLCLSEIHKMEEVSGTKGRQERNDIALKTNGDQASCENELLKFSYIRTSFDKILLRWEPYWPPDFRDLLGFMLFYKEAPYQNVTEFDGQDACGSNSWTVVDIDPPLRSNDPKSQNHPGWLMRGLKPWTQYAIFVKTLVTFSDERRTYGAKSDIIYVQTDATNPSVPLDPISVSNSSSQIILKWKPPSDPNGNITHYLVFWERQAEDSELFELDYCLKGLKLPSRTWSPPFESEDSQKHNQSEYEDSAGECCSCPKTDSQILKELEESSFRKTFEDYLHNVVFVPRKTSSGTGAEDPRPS
Sequence (P06213 763-1382 limits assumed): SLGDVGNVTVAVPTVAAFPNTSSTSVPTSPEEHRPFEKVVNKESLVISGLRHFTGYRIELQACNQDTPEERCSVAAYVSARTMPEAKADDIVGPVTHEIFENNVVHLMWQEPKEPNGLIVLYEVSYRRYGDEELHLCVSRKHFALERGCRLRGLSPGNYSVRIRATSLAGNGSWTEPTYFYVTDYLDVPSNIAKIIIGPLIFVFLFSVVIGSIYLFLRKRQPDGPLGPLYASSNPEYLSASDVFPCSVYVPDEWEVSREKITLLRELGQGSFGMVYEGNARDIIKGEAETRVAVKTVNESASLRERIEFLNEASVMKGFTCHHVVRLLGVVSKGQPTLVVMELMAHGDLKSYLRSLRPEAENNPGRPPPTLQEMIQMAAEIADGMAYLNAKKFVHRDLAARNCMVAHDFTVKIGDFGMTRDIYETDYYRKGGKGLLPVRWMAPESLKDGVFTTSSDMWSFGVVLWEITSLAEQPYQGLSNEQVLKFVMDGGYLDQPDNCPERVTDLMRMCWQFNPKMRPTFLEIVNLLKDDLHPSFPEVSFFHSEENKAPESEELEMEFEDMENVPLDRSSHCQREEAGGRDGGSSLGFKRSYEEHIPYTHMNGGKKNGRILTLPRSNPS

| Compound | IC50 [nM] |
| --- | --- |
| COc1cc(N2CCC(N3CCN(C)CC3)CC2)ccc1Nc1ncc(Cl)c(Nc2ccccc2P(C)(C)=O)n1 [BRIGATINIB] | 196 |

system: not listed separately; assay: Half life in mouse at 10 mg/kg, po by LC-MS/MS analysis; type: ADME, organism-based; details: in vivo

| Compound | half-life [h] |
| --- | --- |
| COc1cc(N2CCC(N3CCN(C)CC3)CC2)ccc1Nc1ncc(Cl)c(Nc2ccccc2P(C)(C)=O)n1 [BRIGATINIB] | 5.8 |

system: KARPAS-299; assay: Antitumor activity against human KARPAS299 cells expressing […] fusion protein xenografted in SCID/beige mouse assessed as tumor regression at 50 mg/kg, po administered once daily for 13 days; type: functional, organism-based; details: not given

| Compound | Activity |
| --- | --- |
| COc1cc(N2CCC(N3CCN(C)CC3)CC2)ccc1Nc1ncc(Cl)c(Nc2ccccc2P(C)(C)=O)n1 [BRIGATINIB] | Active |

biological target: T1, ALK tyrosine kinase receptor (Homo sapiens, UniProt Q9UM73); assay: Inhibition of ALK phosphorylation in mouse xenografted with human KARPAS299 cells assessed as p-ALK level at 25 mg/kg, po administered as single dose measured after 10 hrs relative to 2 hrs vehicle-treated tumor; type: organism-based; design: scale not given: the % may be the effect or the level left; details: KARPAS-299
T1 sequence (Q9UM73 19-1620 limits assumed): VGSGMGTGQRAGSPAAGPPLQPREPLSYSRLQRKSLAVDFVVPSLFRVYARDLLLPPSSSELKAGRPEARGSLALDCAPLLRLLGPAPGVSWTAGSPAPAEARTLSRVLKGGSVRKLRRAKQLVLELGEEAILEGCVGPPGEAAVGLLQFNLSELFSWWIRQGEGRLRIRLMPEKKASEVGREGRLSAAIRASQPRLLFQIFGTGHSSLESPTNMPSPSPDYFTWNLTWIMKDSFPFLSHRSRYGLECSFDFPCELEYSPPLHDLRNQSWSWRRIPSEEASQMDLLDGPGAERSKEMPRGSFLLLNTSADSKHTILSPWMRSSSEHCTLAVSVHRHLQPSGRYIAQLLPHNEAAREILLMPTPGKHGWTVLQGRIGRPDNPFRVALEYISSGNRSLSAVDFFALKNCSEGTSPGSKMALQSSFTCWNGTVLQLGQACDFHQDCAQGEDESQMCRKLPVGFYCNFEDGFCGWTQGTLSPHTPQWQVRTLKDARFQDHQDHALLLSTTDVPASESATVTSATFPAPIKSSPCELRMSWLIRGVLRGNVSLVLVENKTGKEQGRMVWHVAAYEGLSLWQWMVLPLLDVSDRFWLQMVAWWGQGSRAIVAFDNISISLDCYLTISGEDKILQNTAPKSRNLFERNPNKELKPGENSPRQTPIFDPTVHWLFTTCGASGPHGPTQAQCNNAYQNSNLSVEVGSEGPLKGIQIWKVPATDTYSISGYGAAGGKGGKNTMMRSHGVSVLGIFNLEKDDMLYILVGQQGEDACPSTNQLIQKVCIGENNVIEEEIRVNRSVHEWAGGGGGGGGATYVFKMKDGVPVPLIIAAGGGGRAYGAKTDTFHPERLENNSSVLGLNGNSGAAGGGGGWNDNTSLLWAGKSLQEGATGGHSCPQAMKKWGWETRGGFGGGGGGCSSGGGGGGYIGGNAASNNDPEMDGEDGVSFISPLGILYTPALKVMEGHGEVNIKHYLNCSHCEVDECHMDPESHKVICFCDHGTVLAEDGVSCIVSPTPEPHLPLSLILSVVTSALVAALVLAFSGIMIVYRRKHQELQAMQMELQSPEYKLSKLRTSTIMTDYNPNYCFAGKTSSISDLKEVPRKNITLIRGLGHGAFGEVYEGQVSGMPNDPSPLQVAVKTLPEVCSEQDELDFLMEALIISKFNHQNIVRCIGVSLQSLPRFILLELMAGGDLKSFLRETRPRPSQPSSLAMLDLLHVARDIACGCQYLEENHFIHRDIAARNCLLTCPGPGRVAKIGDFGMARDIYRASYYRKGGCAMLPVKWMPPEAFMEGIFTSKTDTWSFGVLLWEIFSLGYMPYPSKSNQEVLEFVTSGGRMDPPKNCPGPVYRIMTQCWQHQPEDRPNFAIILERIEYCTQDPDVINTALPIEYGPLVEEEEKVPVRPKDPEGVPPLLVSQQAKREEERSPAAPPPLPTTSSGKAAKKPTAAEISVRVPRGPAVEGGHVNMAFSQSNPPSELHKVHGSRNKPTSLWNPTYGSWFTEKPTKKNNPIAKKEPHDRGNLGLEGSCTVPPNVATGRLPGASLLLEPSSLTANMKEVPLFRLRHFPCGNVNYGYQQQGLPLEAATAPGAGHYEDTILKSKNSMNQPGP

| Compound | Activity [%] |
| --- | --- |
| COc1cc(N2CCC(N3CCN(C)CC3)CC2)ccc1Nc1ncc(Cl)c(Nc2ccccc2P(C)(C)=O)n1 [BRIGATINIB] | 1 |

system: NCI-H3122; assay: Antitumor activity against human NCI-H3122 cells expressing EML4-ALK fusion protein xenografted in SCID/beige mouse assessed as tumor regression compound administered as once-daily oral dose for 19 days; type: functional, cell-based; details: not given

| Compound | Activity |
| --- | --- |
| COc1cc(N2CCC(N3CCN(C)CC3)CC2)ccc1Nc1ncc(Cl)c(Nc2ccccc2P(C)(C)=O)n1 [BRIGATINIB] | Dose-dependent effect |

system: not listed separately; assay: Aqueous solubility of the compound at physiological pH; type: physicochemical; details: buffer

| Compound | solubility [µg/mL] |
| --- | --- |
| COc1cc(N2CCC(N3CCN(C)CC3)CC2)ccc1Nc1ncc(Cl)c(Nc2ccccc2P(C)(C)=O)n1 [BRIGATINIB] | 337 (≈ 577 µM) |

organism: Homo sapiens; assay: Inhibition of human EML4/ALK I1171N mutant; details: not given

| Compound | inhibition |
| --- | --- |
| COc1cc(N2CCC(N3CCN(C)CC3)CC2)ccc1Nc1ncc(Cl)c(Nc2ccccc2P(C)(C)=O)n1 [BRIGATINIB] | Active |

system: not listed separately; assay: Cmax in mouse at 10 mg/kg, po by LC-MS/MS analysis; type: ADME, organism-based; design: dose 10 mg/kg, route oral; details: in vivo

| Compound | Cmax [ng/mL] |
| --- | --- |
| COc1cc(N2CCC(N3CCN(C)CC3)CC2)ccc1Nc1ncc(Cl)c(Nc2ccccc2P(C)(C)=O)n1 [BRIGATINIB] | 448 |

system: not listed separately; assay: Protein binding in mouse plasma; type: ADME, cell-free; details: read-out: PPB (converted)

| Compound | fraction unbound |
| --- | --- |
| COc1cc(N2CCC(N3CCN(C)CC3)CC2)ccc1Nc1ncc(Cl)c(Nc2ccccc2P(C)(C)=O)n1 [BRIGATINIB] | 0.36 |

system: not listed separately; assay: animal or person; details: Homo sapiens, KARPAS-299, po, 312 h, read-out: TGI
Description: Antitumor activity against human KARPAS299 cells expressing NMP-ALK fusion protein xenografted in SCID/beige mouse assessed as tumor growth inhibition at 50 mg/kg, po administered once daily for 13 days relative to untreated control

| Compound | inhibition in vivo at 50 mg/kg [%] |
| --- | --- |
| COc1cc(N2CCC(N3CCN(C)CC3)CC2)ccc1Nc1ncc(Cl)c(Nc2ccccc2P(C)(C)=O)n1 [BRIGATINIB] | -11 |

system: not listed separately; assay: Lipophilicity, logD of the compound at pH 7; type: physicochemical; details: buffer

| Compound | logD |
| --- | --- |
| COc1cc(N2CCC(N3CCN(C)CC3)CC2)ccc1Nc1ncc(Cl)c(Nc2ccccc2P(C)(C)=O)n1 [BRIGATINIB] | 3.02 |

biological target: Hepatocyte growth factor receptor (Homo sapiens) (UniProt P08581); assay: Inhibition of human c-Met using [KKKSPGEYVNIEFG as substrate and [gamma-33P]ATP up to 1 uM measured after 1 hr; details: not given

| Compound | inhibition |
| --- | --- |
| COc1cc(N2CCC(N3CCN(C)CC3)CC2)ccc1Nc1ncc(Cl)c(Nc2ccccc2P(C)(C)=O)n1 [BRIGATINIB] | inactive |

system: Rattus norvegicus; assay: AUC (0 to infinity) in CD rat at 3 mg/kg, iv by LC-MS/MS analysis; type: ADME, organism-based; design: dose 3 mg/kg, time infinity, route intravenous; details: in vivo

| Compound | AUC [ng·h/mL] |
| --- | --- |
| COc1cc(N2CCC(N3CCN(C)CC3)CC2)ccc1Nc1ncc(Cl)c(Nc2ccccc2P(C)(C)=O)n1 [BRIGATINIB] | 2268 |

organism: Homo sapiens; assay: Inhibition of human EML4/ALK F1174C/V mutant; details: not given

| Compound | inhibition |
| --- | --- |
| COc1cc(N2CCC(N3CCN(C)CC3)CC2)ccc1Nc1ncc(Cl)c(Nc2ccccc2P(C)(C)=O)n1 [BRIGATINIB] | Active |

system: not listed separately; assay: Half life in CD rat at 10 mg/kg, po by LC-MS/MS analysis; type: ADME, organism-based; details: in vivo

| Compound | half-life [h] |
| --- | --- |
| COc1cc(N2CCC(N3CCN(C)CC3)CC2)ccc1Nc1ncc(Cl)c(Nc2ccccc2P(C)(C)=O)n1 [BRIGATINIB] | 3.4 |

biological target: Insulin-like growth factor 1 receptor (Homo sapiens, UniProt P08069); assay: not given; details: not given

| Compound | IC50 [nM] |
| --- | --- |
| COc1cc(N2CCC(N3CCN(C)CC3)CC2)ccc1Nc1ncc(Cl)c(Nc2ccccc2P(C)(C)=O)n1 [BRIGATINIB] | 24.9 |

biological target: Macrophage-stimulating protein receptor (Homo sapiens) (UniProt Q04912); assay: Inhibition of human Ron using KKSRGDYMTMQIG as substrate and [gamma-33P]ATP measured up to 1 uM after 1 hr; details: not given
Sequence (Q04912 25-304 limits assumed): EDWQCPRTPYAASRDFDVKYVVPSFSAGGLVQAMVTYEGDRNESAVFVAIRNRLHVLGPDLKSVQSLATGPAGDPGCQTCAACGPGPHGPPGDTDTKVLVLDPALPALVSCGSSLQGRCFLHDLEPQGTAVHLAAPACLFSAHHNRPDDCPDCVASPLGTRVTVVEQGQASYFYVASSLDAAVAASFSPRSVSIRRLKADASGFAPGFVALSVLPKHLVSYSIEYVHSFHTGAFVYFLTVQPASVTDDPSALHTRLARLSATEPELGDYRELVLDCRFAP
Sequence (Q04912 310-1400 limits assumed): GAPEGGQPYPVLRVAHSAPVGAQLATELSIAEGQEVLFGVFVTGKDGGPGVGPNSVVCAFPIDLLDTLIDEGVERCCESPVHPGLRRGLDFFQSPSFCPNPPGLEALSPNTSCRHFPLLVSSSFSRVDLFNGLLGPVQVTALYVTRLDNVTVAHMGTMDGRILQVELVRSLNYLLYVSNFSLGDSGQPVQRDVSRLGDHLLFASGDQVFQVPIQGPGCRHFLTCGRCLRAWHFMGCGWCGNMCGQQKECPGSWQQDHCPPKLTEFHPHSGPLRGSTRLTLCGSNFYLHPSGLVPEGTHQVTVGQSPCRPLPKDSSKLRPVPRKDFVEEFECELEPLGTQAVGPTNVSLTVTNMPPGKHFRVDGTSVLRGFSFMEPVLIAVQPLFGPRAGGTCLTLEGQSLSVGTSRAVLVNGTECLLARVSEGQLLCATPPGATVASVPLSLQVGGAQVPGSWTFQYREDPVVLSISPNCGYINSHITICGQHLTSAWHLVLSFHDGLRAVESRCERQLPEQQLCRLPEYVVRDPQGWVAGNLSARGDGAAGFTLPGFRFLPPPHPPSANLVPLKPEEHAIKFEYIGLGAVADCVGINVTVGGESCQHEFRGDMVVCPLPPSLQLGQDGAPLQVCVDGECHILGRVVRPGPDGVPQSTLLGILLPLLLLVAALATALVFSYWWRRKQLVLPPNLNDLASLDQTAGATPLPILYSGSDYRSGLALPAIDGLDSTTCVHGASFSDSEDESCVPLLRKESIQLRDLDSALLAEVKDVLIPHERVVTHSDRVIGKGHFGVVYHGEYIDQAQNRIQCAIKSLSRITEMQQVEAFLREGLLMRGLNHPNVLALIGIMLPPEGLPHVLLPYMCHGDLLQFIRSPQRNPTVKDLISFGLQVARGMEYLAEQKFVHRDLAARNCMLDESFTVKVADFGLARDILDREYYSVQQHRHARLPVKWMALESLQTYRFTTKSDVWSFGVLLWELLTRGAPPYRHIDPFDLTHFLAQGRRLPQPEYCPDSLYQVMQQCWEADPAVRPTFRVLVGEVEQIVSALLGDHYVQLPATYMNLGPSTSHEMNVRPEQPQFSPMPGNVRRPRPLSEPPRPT

| Compound | inhibition |
| --- | --- |
| COc1cc(N2CCC(N3CCN(C)CC3)CC2)ccc1Nc1ncc(Cl)c(Nc2ccccc2P(C)(C)=O)n1 [BRIGATINIB] | inactive |

system: not listed separately; assay: animal or person; details: Homo sapiens, KARPAS-299, po, 312 h, read-out: TGI; remark: another data set of the same source
Description: Antitumor activity against human KARPAS299 cells expressing NMP-ALK fusion protein xenografted in SCID/beige mouse assessed as tumor growth inhibition at 10 mg/kg, po administered once daily for 13 days relative to untreated control

| Compound | inhibition in vivo at 10 mg/kg [%] |
| --- | --- |
| COc1cc(N2CCC(N3CCN(C)CC3)CC2)ccc1Nc1ncc(Cl)c(Nc2ccccc2P(C)(C)=O)n1 [BRIGATINIB] | 50 |

system: Rattus norvegicus; assay: Half life in CD rat at 3 mg/kg, iv by LC-MS/MS analysis; type: ADME, organism-based; details: in vivo

| Compound | t1/2 [h] |
| --- | --- |
| COc1cc(N2CCC(N3CCN(C)CC3)CC2)ccc1Nc1ncc(Cl)c(Nc2ccccc2P(C)(C)=O)n1 [BRIGATINIB] | 4.8 |

system: not listed separately; assay: Protein binding in rat plasma; type: ADME, cell-free; details: read-out: PPB (converted)

| Compound | fraction unbound |
| --- | --- |
| COc1cc(N2CCC(N3CCN(C)CC3)CC2)ccc1Nc1ncc(Cl)c(Nc2ccccc2P(C)(C)=O)n1 [BRIGATINIB] | 0.27 |

system: not listed separately; assay: cells; details: Homo sapiens, U-937, 72 h
Description: Antiproliferative activity against human ALK-negative U937 cells assessed as reduction in cell viability measured after 72 hrs by CellTiter 96 aqueous one solution cell proliferation assay

| Compound | IC50 [nM] |
| --- | --- |
| COc1cc(N2CCC(N3CCN(C)CC3)CC2)ccc1Nc1ncc(Cl)c(Nc2ccccc2P(C)(C)=O)n1 [BRIGATINIB] | 3190 |

organism: Homo sapiens; assay: Inhibition of human EML4/ALK […] mutant; details: not given

| Compound | inhibition |
| --- | --- |
| COc1cc(N2CCC(N3CCN(C)CC3)CC2)ccc1Nc1ncc(Cl)c(Nc2ccccc2P(C)(C)=O)n1 [BRIGATINIB] | Active |

system: not listed separately; assay: Tmax in CD rat at 10 mg/kg, po by LC-MS/MS analysis; type: ADME, organism-based; details: in vivo

| Compound | Tmax [h] |
| --- | --- |
| COc1cc(N2CCC(N3CCN(C)CC3)CC2)ccc1Nc1ncc(Cl)c(Nc2ccccc2P(C)(C)=O)n1 [BRIGATINIB] | 4 |

biological target: T1, ALK tyrosine kinase receptor; assay: Inhibition of ALK phosphorylation in mouse xenografted with human KARPAS299 cells assessed as p-ALK level at 25 mg/kg, po administered as single dose measured after 16 hrs relative to 2 hrs vehicle-treated tumor; type: organism-based; design: scale not given: the % may be the effect or the level left; details: KARPAS-299

| Compound | Activity [%] |
| --- | --- |
| COc1cc(N2CCC(N3CCN(C)CC3)CC2)ccc1Nc1ncc(Cl)c(Nc2ccccc2P(C)(C)=O)n1 [BRIGATINIB] | 7 |

system: not listed separately; assay: AUC (0 to infinity) in CD rat at 10 mg/kg, po by LC-MS/MS analysis; type: ADME, organism-based; design: dose 10 mg/kg, route oral, time infinity; details: in vivo

| Compound | AUC(0-inf) [ng·h/mL] |
| --- | --- |
| COc1cc(N2CCC(N3CCN(C)CC3)CC2)ccc1Nc1ncc(Cl)c(Nc2ccccc2P(C)(C)=O)n1 [BRIGATINIB] | 3950 |

biological target: T1, ALK tyrosine kinase receptor; assay: Inhibition of ALK phosphorylation in mouse xenografted with human KARPAS299 cells assessed as p-ALK level at 25 mg/kg, po administered as single dose measured after 24 hrs relative to 2 hrs vehicle-treated tumor; type: organism-based; design: scale not given: the % may be the effect or the level left; details: KARPAS-299

| Compound | Activity [%] |
| --- | --- |
| COc1cc(N2CCC(N3CCN(C)CC3)CC2)ccc1Nc1ncc(Cl)c(Nc2ccccc2P(C)(C)=O)n1 [BRIGATINIB] | 39 |

system: KARPAS-299; assay: Antitumor activity against human KARPAS299 cells xenografted in SCID/beige mouse assessed as tumor growth inhibition administered orally once daily for 13 days relative to untreated control; type: functional, cell-based; details: not given

| Compound | TGI |
| --- | --- |
| COc1cc(N2CCC(N3CCN(C)CC3)CC2)ccc1Nc1ncc(Cl)c(Nc2ccccc2P(C)(C)=O)n1 [BRIGATINIB] | Dose-dependent effect |

system: not listed separately; assay: animal or person; details: Homo sapiens, KARPAS-299, po, 312 h, read-out: TGI; remark: another data set of the same source
Description: Antitumor activity against human KARPAS299 cells expressing NMP-ALK fusion protein xenografted in SCID/beige mouse assessed as tumor growth inhibition at 25 mg/kg, po administered once daily for 13 days relative to untreated control

| Compound | inhibition in vivo at 25 mg/kg [%] |
| --- | --- |
| COc1cc(N2CCC(N3CCN(C)CC3)CC2)ccc1Nc1ncc(Cl)c(Nc2ccccc2P(C)(C)=O)n1 [BRIGATINIB] | 12 |
